Drawing on ChEMBL document CHEMBL5143659, “Concise synthesis and preliminary biological evaluation of new triazolylthioacetone derivatives bearing pyridine, pyrazine, and 3,4,5-trimethoxybenzyl fragment” (Bioorg Med Chem Lett, 2022), this text covers IC50, Activity and inhibition for 28 compounds.

Structures are written as SMILES. Where only a bound is given, the exact number is not on record here.

The subject of one data set is HepG2. Put plainly: Antiproliferative activity against human HepG2 cells assessed as inhibition of cell growth by MTT assay. Format: functional, cell-based.
A further data set deals with Tubulin. Put plainly: Inhibition of tubulin polymerization (unknown origin) measured every minute for 20 mins by fluorescence based assay. Format: protein-complex assay, Homo sapiens.
Data set [1] concerns HCT-116. The experiment in a line: Antiproliferative activity against human HCT-116 cells assessed as inhibition of cell growth by MTT assay. Format: functional, cell-based. On the technique in general: Tetrazolium dyes change colour on reduction, which living cells bring about.
For data set [2], the system named is HCT-116. Put plainly: Induction of cell cycle arrest in human HCT-116 cells assessed as accumulation of cells at G2/M phase at 1.5 uM incubated for 24 hrs by PI staining based flow cytometry analysis (reference value: 21.10 %). It is filed as functional.
The nature of data set [3]: Cytotoxicity against HEK293 cells assessed as inhibition of cell growth by MTT assay. The conditions noted are these: human. Format: toxicity, cell-based.
Data set [4] concerns HCT-116. Put plainly: Induction of cell cycle arrest in human HCT-116 cells assessed as accumulation of cells at G2/M phase at 0.75 uM incubated for 24 hrs by PI staining based flow cytometry analysis (reference value: 21.10 %). It is filed as functional. A general note: A flow cytometer gives signals particle by particle.
In a further data set the target is Tubulin (Homo sapiens) (UniProt P68371+Q9H4B7+P0DPH7+P68366+Q13509+Q71U36+P04350+Q3ZCM7+P07437+P68363+Q9BQE3+Q6PEY2+Q13885+Q9BVA1+Q9BUF5). Put plainly: Inhibition of tubulin polymerization (unknown origin) at 10 uM measured every minute for 20 mins by fluorescence based assay relative to control. It is filed as protein-complex assay.
The test system of data set [5] is HCT-116. The experiment in a line: Induction of cell cycle arrest in human HCT-116 cells assessed as accumulation of cells at S phase at 0.75 uM incubated for 24 hrs by PI staining based flow cytometry analysis (reference value: 47.56 %). It is filed as functional.
The subject of another data set is HT-29. Put plainly: Antiproliferative activity against human HT-29 cells assessed as inhibition of cell growth by MTT assay. Format: functional, cell-based.
For data set [6], the system named is HCT-116. The experiment in a line: Induction of cell cycle arrest in human HCT-116 cells assessed as accumulation of cells at G1/G0 phase at 3 uM incubated for 24 hrs by PI staining based flow cytometry analysis (reference value: 31.33 %). Format: functional.
Data set [7] has as its system HCT-116. The experiment in a line: Induction of cell cycle arrest in human HCT-116 cells assessed as accumulation of cells at G1/G0 phase at 0.75 uM incubated for 24 hrs by PI staining based flow cytometry analysis (reference value: 31.33 %). Format: functional.
In data set [8] the test system is HCT-116. Put plainly: Induction of cell cycle arrest in human HCT-116 cells assessed as accumulation of cells at G2/M phase at 3 uM incubated for 24 hrs by PI staining based flow cytometry analysis (reference value: 21.10 %). Format: functional.
The subject of data set [9] is HCT-116. Put plainly: Induction of cell cycle arrest in human HCT-116 cells assessed as accumulation of cells at S phase at 3 uM incubated for 24 hrs by PI staining based flow cytometry analysis (reference value: 47.56 %). Format: functional.
The subject of data set [10] is HCT-116. Put plainly: Induction of cell cycle arrest in human HCT-116 cells assessed as accumulation of cells at S phase at 1.5 uM incubated for 24 hrs by PI staining based flow cytometry analysis (reference value: 47.56 %). It is filed as functional.
For data set [11], the system named is HCT-116. Put plainly: Induction of cell cycle arrest in human HCT-116 cells assessed as accumulation of cells at G1/G0 phase at 1.5 uM incubated for 24 hrs by PI staining based flow cytometry analysis (reference value: 31.33 %). Format: functional.
The test system of a further data set is HeLa. Put plainly: Antiproliferative activity against human HeLa cells assessed as inhibition of cell growth by MTT assay. It is filed as functional, cell-based.
Data set [12] addresses Vascular endothelial growth factor receptor 2 (Homo sapiens, UniProt P35968). The experiment in a line: Inhibition of VEGFR2 (unknown origin) by kinase-glo luminescent assay. (In Kinase-Glo more light means more ATP remaining.)

Chain of Vascular endothelial growth factor receptor 2 (P35968 whole entry): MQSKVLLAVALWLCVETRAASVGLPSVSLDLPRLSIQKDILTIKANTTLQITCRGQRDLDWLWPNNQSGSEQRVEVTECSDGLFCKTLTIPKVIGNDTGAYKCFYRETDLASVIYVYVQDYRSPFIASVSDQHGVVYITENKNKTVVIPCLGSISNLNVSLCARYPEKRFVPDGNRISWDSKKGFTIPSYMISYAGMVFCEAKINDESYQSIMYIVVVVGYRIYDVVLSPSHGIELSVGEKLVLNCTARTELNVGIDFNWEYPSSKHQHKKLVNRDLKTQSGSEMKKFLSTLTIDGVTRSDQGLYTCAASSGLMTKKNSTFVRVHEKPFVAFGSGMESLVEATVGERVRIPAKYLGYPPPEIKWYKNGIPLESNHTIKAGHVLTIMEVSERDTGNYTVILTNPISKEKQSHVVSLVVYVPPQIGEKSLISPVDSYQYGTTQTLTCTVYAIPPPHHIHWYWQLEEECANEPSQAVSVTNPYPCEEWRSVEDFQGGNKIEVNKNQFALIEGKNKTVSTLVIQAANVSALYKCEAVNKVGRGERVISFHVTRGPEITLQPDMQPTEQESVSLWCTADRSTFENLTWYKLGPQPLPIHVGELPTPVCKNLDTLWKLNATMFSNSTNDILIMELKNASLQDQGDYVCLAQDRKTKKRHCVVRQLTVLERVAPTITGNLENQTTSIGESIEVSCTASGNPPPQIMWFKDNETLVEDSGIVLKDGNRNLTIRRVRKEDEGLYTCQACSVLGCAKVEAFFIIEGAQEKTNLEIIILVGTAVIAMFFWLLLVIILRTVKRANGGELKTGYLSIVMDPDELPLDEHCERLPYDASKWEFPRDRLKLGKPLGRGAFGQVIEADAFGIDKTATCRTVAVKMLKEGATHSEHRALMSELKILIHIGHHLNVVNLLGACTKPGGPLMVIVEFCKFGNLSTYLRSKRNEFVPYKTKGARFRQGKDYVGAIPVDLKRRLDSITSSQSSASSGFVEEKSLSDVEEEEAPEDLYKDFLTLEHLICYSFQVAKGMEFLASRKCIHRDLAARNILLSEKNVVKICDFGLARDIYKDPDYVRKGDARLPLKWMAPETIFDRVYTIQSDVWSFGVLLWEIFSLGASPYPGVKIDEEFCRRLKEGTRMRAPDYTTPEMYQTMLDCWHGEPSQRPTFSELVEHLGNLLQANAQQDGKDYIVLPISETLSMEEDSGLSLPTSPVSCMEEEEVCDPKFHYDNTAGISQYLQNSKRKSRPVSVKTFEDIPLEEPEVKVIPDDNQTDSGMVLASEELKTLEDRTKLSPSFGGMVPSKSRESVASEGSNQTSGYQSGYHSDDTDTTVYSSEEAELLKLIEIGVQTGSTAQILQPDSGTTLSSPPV

Regarding `COc1cc(COc2nnc(SCC(=O)c3ccc(Cl)cc3)n2N2C(=O)c3ccccc3C2=O)cc(OC)c1OC`, the IC50 in the data set on HepG2 is greater than 100 µM.
The same measure, in the same setting: under `COc1cc(Cc2nnc(SCC(=O)c3ccc(Cl)cc3)n2N2C(=O)c3ccccc3C2=O)cc(OC)c1OC` stands 94.8 µM; under `COc1cc(Cc2nnc(SCC(=O)c3ccc(C)cc3)n2N2C(=O)c3ccccc3C2=O)cc(OC)c1OC`, greater than 100 µM.
With `COc1cc(Cc2nnc(SCC(=O)c3ccc(C)cc3)n2N)cc(OC)c1OC`, the IC50 is 12.7 µM at Tubulin; 1.46 µM in the data set with HCT-116 [1]; greater than 100 µM in data set [3]; 0.62 µM in the data set with HT-29; 3.65 µM with HepG2; 9.02 µM with HeLa. Further, the Activity with HCT-116 [2] was 36.03%; in the data set with HCT-116 [4], 33.73%; in the data set with HCT-116 [5], 36.97%; with HCT-116 [6], 11.13%; in the data set with HCT-116 [7], 29.3%; in the data set with HCT-116 [8], 48.75%. Also, the results for the Activity with HCT-116 [9], in the data set on HCT-116 [10] and in the data set with HCT-116 [11] were 40.12%, 30.21% and 33.76%, respectively. The compound further gave an inhibition on Tubulin (Homo sapiens) of 36%.
With `COc1ccc(C(=O)CSc2nnc(-c3ccccn3)n2N2C(=O)c3ccccc3C2=O)cc1`, the 50% inhibitory concentration (IC50) in the data set on HepG2 came to 90.3 µM.
Consider `O=C(CSc1nnc(-c2cnccn2)n1N1C(=O)c2ccccc2C1=O)c1ccc(C(F)(F)F)cc1`, for which the IC50 in the data set with HepG2 was greater than 100 µM.
The same measure, in the same setting: under `COc1cc(Cc2nnc(SCC(=O)c3ccc(C(F)(F)F)cc3)n2N2C(=O)c3ccccc3C2=O)cc(OC)c1OC` stands 35.3 µM.
In the case of `COc1cc(COc2nnc(SCC(=O)c3ccc(C)cc3)n2N2C(=O)c3ccccc3C2=O)cc(OC)c1OC`, the 50% inhibitory concentration (IC50) in the data set with HepG2 was 80.3 µM.
The same measure, in the same setting: under `O=C(CSc1nnc(-c2ccccn2)n1N1C(=O)c2ccccc2C1=O)c1ccc(C(F)(F)F)cc1` stands 94.3 µM.
`COc1cc(Cc2nnc(SCC(=O)c3ccccc3)n2N2C(=O)c3ccccc3C2=O)cc(OC)c1OC`: the IC50 in the data set with HepG2 turned out to be 71.3 µM.
Same read-out and setting: under `O=C(CSc1nnc(-c2ccccn2)n1N1C(=O)c2ccccc2C1=O)c1ccccc1` stands greater than 100 µM; under `O=C(CSc1nnc(-c2ccccn2)n1N1C(=O)c2ccccc2C1=O)c1ccc(Cl)cc1`, 78.3 µM; under `CC(=O)CSc1nnc(-c2ccccn2)n1N1C(=O)c2ccccc2C1=O`, greater than 100 µM.
On the same count and under the same terms, under `O=C(CSc1nnc(-c2cnccn2)n1N1C(=O)c2ccccc2C1=O)C1CC1` stands greater than 100 µM; under `O=C(CSc1nnc(-c2ccccn2)n1N1C(=O)c2ccccc2C1=O)C1CC1`, greater than 100 µM.
Take `COc1ccc(/C=C\c2cc(OC)c(OC)c(OC)c2)cc1O` [COMBRETASTATIN A4]: in the data set on HCT-116 [1], the IC50 was found to be 1.1 µM.
`O=C(CSc1nnc(-c2cnccn2)n1N1C(=O)c2ccccc2C1=O)c1ccc(Cl)cc1`: the IC50 in the data set with HepG2 is greater than 100 µM.
Same read-out and setting: under `COc1ccc(C(=O)CSc2nnc(Cc3cc(OC)c(OC)c(OC)c3)n2N2C(=O)c3ccccc3C2=O)cc1` stands 61.1 µM.
With `COc1cc(COc2nnc(SCC(=O)c3ccc(C)cc3)n2N)cc(OC)c1OC`, the IC50 with HCT-116 [1] is 7.57 µM; in [3], greater than 100 µM; with HT-29, 12.2 µM; in the data set on HepG2 it was 13.1 µM; in the data set with HeLa it was 29.4 µM.
Consider `Cc1ccc(C(=O)CSc2nnc(-c3ccccn3)n2N2C(=O)c3ccccc3C2=O)cc1`, for which the IC50 in the data set on HepG2 worked out at 65.2 µM.
On to `COc1ccc(C(=O)CSc2nnc(Cc3cc(OC)c(OC)c(OC)c3)n2N)cc1`, for which the IC50 with HCT-116 [1] is 4 µM; in [3], greater than 100 µM; in the data set with HT-29, 10.8 µM; with HepG2 it was 16.2 µM; in the data set with HeLa it was 11.8 µM.
Consider `CC(=O)CSc1nnc(-c2cnccn2)n1N1C(=O)c2ccccc2C1=O`, for which, in the data set on HepG2, the half-inhibitory concentration (IC50) is greater than 100 µM.
Still for that read-out and setting: under `COc1cc(Cc2nnc(SCC(C)=O)n2N2C(=O)c3ccccc3C2=O)cc(OC)c1OC` stands greater than 100 µM.
Take `COc1cc(-c2nnc(SCC(=O)c3ccc(C)cc3)n2N2C(=O)c3ccccc3C2=O)cc(OC)c1OC`: the IC50 in the data set on HCT-116 [1] is greater than 100 µM; in data set [3] it was greater than 100 µM; with HT-29, 76.4 µM; with HeLa, 16.2 µM. This compound also gave an inhibition at Tubulin (Homo sapiens) of 19%.
Consider `Cc1ccc(C(=O)CSc2nnc(-c3cnccn3)n2N2C(=O)c3ccccc3C2=O)cc1`, for which, in the data set with HepG2, the IC50 came to 89.7 µM.
On the same count and under the same terms, under `COc1cc(Cc2nnc(SCC(=O)C3CC3)n2N2C(=O)c3ccccc3C2=O)cc(OC)c1OC` stands greater than 100 µM.
For `COc1ccc(C(=O)CSc2nnc(OCc3cc(OC)c(OC)c(OC)c3)n2N)cc1`, the IC50 in the data set with HCT-116 [1] is greater than 100 µM; in data set [3] it was greater than 100 µM; in the data set on HT-29, 67.6 µM; in the data set with HepG2, 25.4 µM; in the data set on HeLa, greater than 100 µM.
In data set [12], `COc1ccc(/C=N/n2c(SCC(=O)c3ccc(Cl)cc3)nnc2-c2cc3ccccc3[nH]2)cc1` registered an IC50 of 0.071 µM.

A word on the IC50: it is the point on the concentration scale where inhibition reaches its midpoint. The term inhibition denotes the change of the read-out against control, counted positive when it falls. Lower therefore signals little suppression.
